Reference: ChEMBL document CHEMBL1201862, “PubChem BioAssay data set” (2004)
The source made the active and inactive calls.

How the values were obtained:
Hexokinase = Hexokinase (Trypanosoma brucei, UniProt Q38C41); assay: Confirmation assay for inhibitors of Trypanosoma brucei hexokinase 1-Analogue-first series. [Related pubchem assays (depositor defined):AID1430, AID1632, AID2516, AID2560, AID2579, AID2600, AID449725, AID492951]; type: functional
[1] = molecular target: T1, Tyrosine-protein phosphatase non-receptor type 7 (Homo sapiens, UniProt P35236); type: functional
T1 sequence (P35236 whole entry): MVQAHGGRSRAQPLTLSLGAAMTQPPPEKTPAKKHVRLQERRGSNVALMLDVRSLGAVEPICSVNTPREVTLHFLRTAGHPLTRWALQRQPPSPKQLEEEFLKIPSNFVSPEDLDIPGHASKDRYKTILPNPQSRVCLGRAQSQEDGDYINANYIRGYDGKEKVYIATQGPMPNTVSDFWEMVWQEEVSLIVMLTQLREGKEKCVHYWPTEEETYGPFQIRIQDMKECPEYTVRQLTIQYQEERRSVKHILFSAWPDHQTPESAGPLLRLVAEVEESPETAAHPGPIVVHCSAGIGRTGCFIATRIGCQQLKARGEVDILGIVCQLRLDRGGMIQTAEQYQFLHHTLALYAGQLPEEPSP

[2] = molecular target: T1, Tyrosine-protein phosphatase non-receptor type 7; assay: redox-dependent HePTP inhibition, mechanism study, biochemical, fluorescence (AID 2068); type: functional
[3] = molecular target: T2, Dual specificity protein phosphatase 3 (Homo sapiens, UniProt P51452); assay: MOA VHR1 Fluorescent secondary assay for identification of redox-state modulating compounds. [Related pubchem assays (depositor defined):AID1654, AID1661, AID1878, AID1957]
T2 sequence (P51452 whole entry): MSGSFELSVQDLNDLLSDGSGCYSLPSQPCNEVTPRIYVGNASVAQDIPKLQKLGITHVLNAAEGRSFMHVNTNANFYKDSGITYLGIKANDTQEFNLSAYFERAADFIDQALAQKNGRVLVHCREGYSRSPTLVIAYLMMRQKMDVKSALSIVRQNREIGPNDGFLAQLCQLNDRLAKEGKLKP

[4] = molecular target: T2, Dual specificity protein phosphatase 3; assay: SAR VHR1 Fluorescent Assay for In Vitro dose response studies. [Related pubchem assays (depositor defined):AID1654, AID1661, AID1878, AID1992, AID2004, AID2070, AID2085]; type: functional
[5] = molecular target: T3, Short transient receptor potential channel 4 (Mus musculus, UniProt Q9QUQ5); assay: mouse TRPC4 channel activators, dose response, cell-based, HEK293 TRPC4/mu-opioid, Fluo-4 calcium (AID 434937); type: functional
T3 sequence (Q9QUQ5 whole entry): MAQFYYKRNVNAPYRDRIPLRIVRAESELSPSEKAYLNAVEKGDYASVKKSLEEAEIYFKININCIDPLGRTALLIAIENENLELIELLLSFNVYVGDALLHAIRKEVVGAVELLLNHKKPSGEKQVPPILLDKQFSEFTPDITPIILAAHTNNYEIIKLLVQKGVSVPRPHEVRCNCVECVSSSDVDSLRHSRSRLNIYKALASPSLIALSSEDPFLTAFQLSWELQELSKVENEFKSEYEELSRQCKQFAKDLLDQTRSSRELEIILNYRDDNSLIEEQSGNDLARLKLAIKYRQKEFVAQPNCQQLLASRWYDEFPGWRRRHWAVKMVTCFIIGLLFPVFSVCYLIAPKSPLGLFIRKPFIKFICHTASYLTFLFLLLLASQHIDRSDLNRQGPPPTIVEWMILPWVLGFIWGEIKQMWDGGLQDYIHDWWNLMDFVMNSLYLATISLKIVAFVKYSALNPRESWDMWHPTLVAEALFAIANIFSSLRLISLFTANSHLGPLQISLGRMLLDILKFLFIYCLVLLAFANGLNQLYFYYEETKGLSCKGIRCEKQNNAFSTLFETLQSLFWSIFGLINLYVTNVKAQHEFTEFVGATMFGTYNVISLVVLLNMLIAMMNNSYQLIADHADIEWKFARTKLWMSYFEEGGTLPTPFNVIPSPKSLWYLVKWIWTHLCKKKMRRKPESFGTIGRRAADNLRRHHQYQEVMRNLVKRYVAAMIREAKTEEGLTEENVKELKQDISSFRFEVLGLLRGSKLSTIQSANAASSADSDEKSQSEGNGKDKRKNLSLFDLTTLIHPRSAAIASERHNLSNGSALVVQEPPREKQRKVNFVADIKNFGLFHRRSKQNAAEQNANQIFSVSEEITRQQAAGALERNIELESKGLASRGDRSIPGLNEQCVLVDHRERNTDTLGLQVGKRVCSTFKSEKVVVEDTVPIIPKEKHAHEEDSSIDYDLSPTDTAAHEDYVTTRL

[6] = molecular target: T4, Dual specificity protein phosphatase 6 (Rattus norvegicus, UniProt Q64346); type: functional
T4 sequence (Q64346 whole entry): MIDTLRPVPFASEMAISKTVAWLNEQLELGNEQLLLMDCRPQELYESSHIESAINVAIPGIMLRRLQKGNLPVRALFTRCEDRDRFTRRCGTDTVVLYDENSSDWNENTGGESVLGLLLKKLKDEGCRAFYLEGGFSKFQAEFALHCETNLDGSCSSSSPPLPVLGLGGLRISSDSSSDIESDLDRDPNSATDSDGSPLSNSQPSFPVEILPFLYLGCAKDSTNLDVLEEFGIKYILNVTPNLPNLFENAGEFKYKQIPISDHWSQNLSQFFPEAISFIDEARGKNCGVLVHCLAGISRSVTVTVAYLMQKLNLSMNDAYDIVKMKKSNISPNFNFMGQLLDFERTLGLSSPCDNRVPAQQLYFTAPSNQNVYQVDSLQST

[7] = molecular target: T3, Short transient receptor potential channel 4; assay: mouse TRPC4 channel inhibitors, dose response, cell-based, HEK293 TRPC4/mu-opioid, Fluo-4 calcium (AID 434942); type: functional;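 further: potency of inhibitors blocking the TRPC4 calcium response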
[8] = molecular target: T4, Dual specificity protein phosphatase 6
[9] = molecular target: Glyceraldehyde-3-phosphate dehydrogenase (Homo sapiens, UniProt P04406)
Sequence of Glyceraldehyde-3-phosphate dehydrogenase (P04406 whole entry): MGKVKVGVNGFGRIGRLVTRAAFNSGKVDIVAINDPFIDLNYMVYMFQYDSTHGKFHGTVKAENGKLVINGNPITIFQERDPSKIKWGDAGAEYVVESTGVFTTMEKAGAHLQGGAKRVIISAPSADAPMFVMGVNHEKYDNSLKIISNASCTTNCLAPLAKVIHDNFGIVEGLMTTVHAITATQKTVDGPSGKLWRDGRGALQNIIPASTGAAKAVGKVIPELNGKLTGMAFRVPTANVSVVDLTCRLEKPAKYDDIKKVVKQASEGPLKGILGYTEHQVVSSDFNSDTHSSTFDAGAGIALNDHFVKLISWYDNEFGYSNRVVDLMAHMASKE

[10] = molecular target: T5, Voltage-gated N-type calcium channel alpha-1B subunit/Amyloid beta A4 precursor protein-binding family A member 1 (Homo sapiens, UniProt Q00975+Q02410); type: protein assay
T5 sequence (Q00975 whole entry): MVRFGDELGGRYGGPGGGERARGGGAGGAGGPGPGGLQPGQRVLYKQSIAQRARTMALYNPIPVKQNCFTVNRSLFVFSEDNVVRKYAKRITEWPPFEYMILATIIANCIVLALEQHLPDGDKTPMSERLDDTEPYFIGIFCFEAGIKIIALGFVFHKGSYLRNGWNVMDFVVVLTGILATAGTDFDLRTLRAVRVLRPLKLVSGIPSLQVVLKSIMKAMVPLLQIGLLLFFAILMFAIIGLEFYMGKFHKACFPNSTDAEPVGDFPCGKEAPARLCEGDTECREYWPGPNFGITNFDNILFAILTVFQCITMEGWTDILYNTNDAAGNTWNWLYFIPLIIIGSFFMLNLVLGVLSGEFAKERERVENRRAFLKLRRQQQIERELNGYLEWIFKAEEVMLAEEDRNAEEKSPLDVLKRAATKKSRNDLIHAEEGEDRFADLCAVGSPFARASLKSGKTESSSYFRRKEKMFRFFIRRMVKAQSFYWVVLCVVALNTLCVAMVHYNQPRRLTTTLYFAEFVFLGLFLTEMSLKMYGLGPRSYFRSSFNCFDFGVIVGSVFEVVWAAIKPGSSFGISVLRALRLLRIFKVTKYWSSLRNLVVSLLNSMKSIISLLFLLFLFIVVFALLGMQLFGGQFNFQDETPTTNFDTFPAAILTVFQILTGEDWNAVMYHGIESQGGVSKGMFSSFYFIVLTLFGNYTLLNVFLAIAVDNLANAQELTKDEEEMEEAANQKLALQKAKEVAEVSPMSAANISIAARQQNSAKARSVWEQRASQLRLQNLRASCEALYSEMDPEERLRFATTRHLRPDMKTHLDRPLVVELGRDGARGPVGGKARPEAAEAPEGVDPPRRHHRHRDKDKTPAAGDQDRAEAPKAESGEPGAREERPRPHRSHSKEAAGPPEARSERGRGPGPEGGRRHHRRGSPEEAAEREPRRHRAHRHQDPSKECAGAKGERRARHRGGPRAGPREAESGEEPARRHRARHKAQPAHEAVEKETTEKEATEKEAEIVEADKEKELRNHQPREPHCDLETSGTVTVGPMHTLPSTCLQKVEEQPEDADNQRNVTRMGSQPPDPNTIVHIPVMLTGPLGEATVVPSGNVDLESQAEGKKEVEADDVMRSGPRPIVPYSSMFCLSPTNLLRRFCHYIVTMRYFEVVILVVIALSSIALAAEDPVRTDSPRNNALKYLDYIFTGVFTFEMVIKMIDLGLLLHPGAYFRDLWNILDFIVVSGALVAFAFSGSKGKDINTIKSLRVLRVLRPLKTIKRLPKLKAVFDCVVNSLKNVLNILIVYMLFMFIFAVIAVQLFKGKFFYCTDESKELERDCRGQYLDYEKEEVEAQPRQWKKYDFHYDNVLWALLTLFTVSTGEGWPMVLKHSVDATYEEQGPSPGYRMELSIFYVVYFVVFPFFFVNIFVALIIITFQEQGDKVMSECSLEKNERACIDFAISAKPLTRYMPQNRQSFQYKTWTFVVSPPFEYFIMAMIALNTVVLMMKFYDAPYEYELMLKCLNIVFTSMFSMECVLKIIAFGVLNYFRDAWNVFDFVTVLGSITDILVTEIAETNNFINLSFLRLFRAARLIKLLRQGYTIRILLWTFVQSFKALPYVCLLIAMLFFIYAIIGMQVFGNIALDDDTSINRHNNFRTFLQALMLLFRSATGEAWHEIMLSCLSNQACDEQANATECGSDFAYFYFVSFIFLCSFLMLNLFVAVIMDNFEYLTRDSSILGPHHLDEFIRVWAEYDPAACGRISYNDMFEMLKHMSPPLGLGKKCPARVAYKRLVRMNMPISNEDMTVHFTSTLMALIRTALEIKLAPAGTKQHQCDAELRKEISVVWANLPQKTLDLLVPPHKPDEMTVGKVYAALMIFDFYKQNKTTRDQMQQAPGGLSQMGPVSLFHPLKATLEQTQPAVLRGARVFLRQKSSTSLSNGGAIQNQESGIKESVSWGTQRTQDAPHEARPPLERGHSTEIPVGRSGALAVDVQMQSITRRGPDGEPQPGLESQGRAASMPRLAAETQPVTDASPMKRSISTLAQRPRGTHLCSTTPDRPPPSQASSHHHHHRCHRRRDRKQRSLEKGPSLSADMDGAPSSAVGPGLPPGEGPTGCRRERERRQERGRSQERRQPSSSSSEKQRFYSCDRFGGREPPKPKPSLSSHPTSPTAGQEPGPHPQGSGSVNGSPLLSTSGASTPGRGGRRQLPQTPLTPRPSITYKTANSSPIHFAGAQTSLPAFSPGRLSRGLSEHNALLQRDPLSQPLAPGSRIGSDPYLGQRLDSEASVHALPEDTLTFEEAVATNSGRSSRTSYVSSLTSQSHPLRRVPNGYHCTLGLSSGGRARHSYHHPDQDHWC
T5 sequence (Q02410 whole entry): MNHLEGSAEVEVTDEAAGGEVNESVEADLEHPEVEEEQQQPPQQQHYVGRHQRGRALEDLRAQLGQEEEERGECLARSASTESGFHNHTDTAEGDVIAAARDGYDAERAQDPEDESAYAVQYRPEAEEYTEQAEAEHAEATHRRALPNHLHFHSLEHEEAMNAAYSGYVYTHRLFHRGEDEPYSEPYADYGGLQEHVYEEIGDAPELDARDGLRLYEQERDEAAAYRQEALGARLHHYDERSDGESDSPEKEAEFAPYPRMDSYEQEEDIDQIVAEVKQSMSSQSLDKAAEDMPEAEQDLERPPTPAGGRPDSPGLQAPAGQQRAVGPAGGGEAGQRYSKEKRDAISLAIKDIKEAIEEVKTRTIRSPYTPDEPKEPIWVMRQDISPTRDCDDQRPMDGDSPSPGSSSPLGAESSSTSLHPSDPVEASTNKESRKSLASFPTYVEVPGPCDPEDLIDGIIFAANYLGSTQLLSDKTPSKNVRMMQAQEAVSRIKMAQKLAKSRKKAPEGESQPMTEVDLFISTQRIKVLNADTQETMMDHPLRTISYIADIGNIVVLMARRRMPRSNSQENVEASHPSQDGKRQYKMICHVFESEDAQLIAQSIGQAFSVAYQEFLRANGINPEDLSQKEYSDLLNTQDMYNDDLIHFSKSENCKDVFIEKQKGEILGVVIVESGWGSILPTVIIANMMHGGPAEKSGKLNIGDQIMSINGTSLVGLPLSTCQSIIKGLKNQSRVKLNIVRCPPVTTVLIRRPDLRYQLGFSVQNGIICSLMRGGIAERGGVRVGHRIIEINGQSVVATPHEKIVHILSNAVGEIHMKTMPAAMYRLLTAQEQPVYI

[11] = molecular target: T5, Voltage-gated N-type calcium channel alpha-1B subunit/Amyloid beta A4 precursor protein-binding family A member 1; type: protein assay; remark: listed apart in the source
[12] = molecular target: T1, Tyrosine-protein phosphatase non-receptor type 7; assay: SAR analysis of chemical inhibitors of HePTP using a Fluorescent assay - Set 2. [Related pubchem assays (depositor defined):AID1059, AID1077, AID1661, AID2085, AID521]; type: functional
[13] = molecular target: T2, Dual specificity protein phosphatase 3; assay: SAR VHR1 Fluorescent Assay for In Vitro dose response studies Set 2. [Related pubchem assays (depositor defined):AID1654, AID1661, AID1878]; type: functional
[14] = molecular target: Alkaline phosphatase, placental type (Homo sapiens, UniProt P05187); assay: PLAP enzyme inhibitors, confirmation, biochemical, luminescence (AID 1512); type: functional
[15] = molecular target: T6, Alkaline phosphatase, tissue-nonspecific isozyme (Homo sapiens, UniProt P05186); assay: human TNAP enzyme inhibitors, SAR follow-up, biochemical, luminescent, dose response (AID 1056)
T6 sequence (P05186 whole entry): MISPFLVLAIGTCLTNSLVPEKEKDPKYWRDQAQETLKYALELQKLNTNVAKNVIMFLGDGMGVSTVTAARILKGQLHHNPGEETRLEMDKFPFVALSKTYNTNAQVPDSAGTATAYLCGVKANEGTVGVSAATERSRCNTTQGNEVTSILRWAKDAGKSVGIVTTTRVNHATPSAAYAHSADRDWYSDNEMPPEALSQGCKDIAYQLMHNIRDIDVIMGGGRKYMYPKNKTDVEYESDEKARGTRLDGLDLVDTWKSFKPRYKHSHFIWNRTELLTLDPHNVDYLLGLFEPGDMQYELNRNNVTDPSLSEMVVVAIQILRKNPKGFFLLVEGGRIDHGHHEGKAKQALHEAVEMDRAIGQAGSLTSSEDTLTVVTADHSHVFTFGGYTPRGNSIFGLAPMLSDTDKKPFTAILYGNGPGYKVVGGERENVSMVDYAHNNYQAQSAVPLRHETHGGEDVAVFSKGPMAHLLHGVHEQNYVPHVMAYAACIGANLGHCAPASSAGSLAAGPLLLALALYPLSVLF

[16] = cytotoxicity in HEK-293T cells, dose response, cytotoxicity control for TCR NF-kB inhibitor project, luminescence, T-cell screen hits (AID 489026); type: functional, cell-based;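 further: cells exposed to compound about 14 hours before the viability readout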
[17] = Luminescence Cell-Based Dose Response HTS to Identify Inhibitors of 5'UTR Stem-Loop Driven Prion Protein mRNA Translation in H4 Neuroglioblastoma Cells. [Related pubchem assays: 1827 (Project Summary), 1813 (Primary HTS)]; type: functional
[18] = inhibitors of SNCA 5'UTR-driven reporter translation, confirmation, H4 neuroglioma cells, luminescence (AID 1988); type: functional, cell-based
INS1 = assay: beta cell apoptosis inhibitors, cytokine rescue, dose response, luminescence, retest (AID 449756); type: functional, cell-based; conditions: Rattus norvegicus;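 further: cell death triggered by IL-1 beta plus TNF-alpha plus IFN-gamma mixture; protective hits raise ATP signal compared with cytokine alone wells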
HeLa = assay: Cytotoxicity counterscreen assay for transcriptional activators of heat shock protein 70 (Hsp70). [Related pubchem assays: 1203, 1252 ]; type: functional; conditions: Homo sapiens;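 further: cells exposed to compound for 16 hours before readout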
BJ [19] = assay: cytotoxicity toward Ras-transformed BJeLR fibroblasts, dose response, cell-based, alamar blue fluorescence, cherrypicked samples (AID 2631); type: functional; conditions: Homo sapiens;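 further: confirmatory dose-response assay in RAS-dependent BJ fibroblasts engineered with TERT, LT and ST, with cytotoxicity read by fluorescence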
[20] = molecular target: T7, Hepatocyte nuclear factor 4-alpha (Homo sapiens, UniProt P41235); type: functional, cell-based;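 further: biochemical luminescence-based dose-response counterscreen measuring inhibition of HNF4 dimerization, run alongside a screen for blockers of ABHD5–perilipin-5 interaction; split luciferase complementation of HNF4 fusion proteins in cell lysate measuring dimerization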
T7 sequence (P41235 whole entry): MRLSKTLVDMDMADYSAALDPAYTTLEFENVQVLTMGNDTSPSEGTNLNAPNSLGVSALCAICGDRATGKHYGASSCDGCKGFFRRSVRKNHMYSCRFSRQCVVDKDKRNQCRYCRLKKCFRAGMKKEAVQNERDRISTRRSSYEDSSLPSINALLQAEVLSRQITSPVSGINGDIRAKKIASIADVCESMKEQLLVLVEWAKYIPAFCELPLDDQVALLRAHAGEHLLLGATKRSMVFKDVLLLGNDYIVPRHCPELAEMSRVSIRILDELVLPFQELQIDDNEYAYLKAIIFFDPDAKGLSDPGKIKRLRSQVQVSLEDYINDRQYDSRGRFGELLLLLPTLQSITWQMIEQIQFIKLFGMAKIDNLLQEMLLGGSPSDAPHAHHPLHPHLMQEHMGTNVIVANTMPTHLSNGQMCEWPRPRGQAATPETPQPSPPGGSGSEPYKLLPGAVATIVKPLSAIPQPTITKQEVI

BJ [21] = assay: cells; type: functional, cell-based; conditions: Homo sapiens
BJ [22] = assay: cytotoxicity toward BJ-TERT fibroblasts, dose response, cell-based, RAS-independent, luminescence (AID 1933); type: functional; conditions: Homo sapiens
[23] = cytotoxicity toward DRD oncogenic fibroblasts, dose response, cell-based, non-viral oncogenic, luminescence (AID 1934); type: functional; conditions: Homo sapiens
BJ [24] = assay: cytotoxicity toward BJ-TERT-LT-ST fibroblasts, dose response, cell-based, RAS-independent, luminescence (AID 1935); type: functional; conditions: Homo sapiens;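 further: BJ fibroblasts immortalized with TERT plus LT and ST oncogenes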
[25] = Luminescent dose response cell-based high throughput screening assay for inhibitors of the Janus kinase 2 mutant JAK2V617F. [Related pubchem assays: 1446 (Primary screen.), 1521 (Confirmation assay.), 1486 (Counter screen.)]; type: functional
[26] = molecular target: E3 ubiquitin-protein ligase Mdm2/Protein Mdm4 (Homo sapiens, UniProt O15151+Q00987); assay: Mdm2-MdmX interaction inhibitors, dose response, luminescence detection (AID 504593); type: functional
[27] = molecular target: E3 ubiquitin-protein ligase Mdm2 (Homo sapiens, UniProt Q00987); assay: enhancers of MDM2-luciferase reporter signal, concentration-effect titration, project on inhibitors of MDM2 ubiquitin ligase, cellular assay, luminescent readout, 384-well plate format (AID 1394); type: functional;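 further: MDM2 E3 inhibitors raise luminescence so EC50 is for signal enhancement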
Sequence of E3 ubiquitin-protein ligase Mdm2 (Q00987 whole entry): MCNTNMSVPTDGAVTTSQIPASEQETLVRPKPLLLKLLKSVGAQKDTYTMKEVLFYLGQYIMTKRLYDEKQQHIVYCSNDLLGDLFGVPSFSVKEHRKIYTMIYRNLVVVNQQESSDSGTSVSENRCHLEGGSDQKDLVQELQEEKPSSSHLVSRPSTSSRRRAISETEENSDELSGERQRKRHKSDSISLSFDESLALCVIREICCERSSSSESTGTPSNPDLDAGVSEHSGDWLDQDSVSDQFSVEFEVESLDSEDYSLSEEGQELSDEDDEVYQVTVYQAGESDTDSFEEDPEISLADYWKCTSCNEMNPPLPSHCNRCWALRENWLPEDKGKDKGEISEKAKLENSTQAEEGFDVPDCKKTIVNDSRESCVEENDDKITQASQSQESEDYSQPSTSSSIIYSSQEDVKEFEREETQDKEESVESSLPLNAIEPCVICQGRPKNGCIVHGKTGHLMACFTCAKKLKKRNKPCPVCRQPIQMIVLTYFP

[28] = inhibitors of firefly luciferase expression or activity, dose response, H4 neuroglioma cells, luminescence (AID 1990); type: functional, cell-based
Integrin alpha-L = Integrin alpha-L (Mus musculus, UniProt P24063); assay: modulators of CD8 T cell-vesicle binding, dose response, powder samples, mouse 2C CD8+ cells (AID 504565); type: functional

Sequence of Hexokinase (Q38C41 whole entry): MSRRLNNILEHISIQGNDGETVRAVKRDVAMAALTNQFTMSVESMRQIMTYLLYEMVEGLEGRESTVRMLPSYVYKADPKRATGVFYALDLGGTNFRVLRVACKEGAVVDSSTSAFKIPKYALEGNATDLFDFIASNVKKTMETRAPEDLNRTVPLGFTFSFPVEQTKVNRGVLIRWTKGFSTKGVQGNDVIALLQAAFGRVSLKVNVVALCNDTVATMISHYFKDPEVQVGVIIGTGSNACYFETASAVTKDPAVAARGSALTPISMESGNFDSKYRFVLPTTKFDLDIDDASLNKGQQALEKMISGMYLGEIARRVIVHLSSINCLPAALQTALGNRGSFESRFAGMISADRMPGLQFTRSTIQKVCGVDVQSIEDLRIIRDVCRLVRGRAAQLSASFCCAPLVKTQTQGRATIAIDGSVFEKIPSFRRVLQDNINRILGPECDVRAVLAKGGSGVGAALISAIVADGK

COc1ccc(C(=O)Nc2cc(Cl)c(C)cc2C(=O)O)cc1
IC50 (Hexokinase): 10.3 µM (active)

Cc1ccc2c(nc3s/c(=C\c4ccc(-c5ccccc5C(=O)O)o4)c(=O)n32)c1C
IC50 [1]: 3.88 µM (active) | IC50 [2]: 2.2 µM (active) | IC50 [3]: 2.94 µM (active) | IC50 [4]: 5.71 µM (active) | EC50 [5]: 6.68 µM (active) | IC50 [6]: 35.3 µM (active) | EC50 [7]: 5.31 µM (active) | IC50 [8]: 22 µM (active) | IC50 [9]: > 100 µM (not active)

COc1ccc2cc(/N=C/c3nc(-c4ccc(C)cc4)oc3O)cnc2c1
IC50 [10]: > 50 µM (inactive) | IC50 [11]: 10.3 µM (active)

COc1cccc(CN2CCN(C(=S)Nc3ccc(S(N)(=O)=O)cc3)CC2)c1
IC50 [12]: > 100 µM (inactive) | IC50 [13]: > 100 µM (inactive)

COc1ccc(-c2nnc(SCC(=O)c3ccc(O)c(O)c3)n2-c2ccc(Cl)cc2)cc1
IC50 [14]: 25 µM (active) | IC50 [15]: > 100 µM (inactive)

CCN1C/C(=C/c2ccc(OC)c(O)c2)C(=O)/C(=C/c2ccc(OC)c(O)c2)C1
IC50 [16]: > 80 µM (inactive) | EC50 [17]: 0.221 µM (active) | EC50 [18]: 4.84 µM (active) | AC50 (INS1): 4.09 µM (active) | CC50 (HeLa): > 3.67 µM (not active) | EC50 (BJ [19]): 0.38 µM (active) | IC50 [20]: 12.9 µM (inactive) | EC50 (BJ [21]): 1.35 µM (inconclusive) | EC50 (BJ [22]): 1.78 µM (inconclusive) | EC50 [23]: 1.34 µM (active) | EC50 (BJ [24]): 1.25 µM (inconclusive) | IC50 [25]: 0.67 µM (active) | IC50 [26]: 8.47 µM (active) | EC50 [27]: 0.38 µM (active) | EC50 [28]: 0.374 µM (inconclusive)

COc1ccc(S(=O)(=O)N2CCCC2C(=O)Nc2ccc(C(C)=O)cc2)cc1 (configuration not stated)
EC50 (Integrin alpha-L): 0.04 µM (active)
